# Data: BindingDB's records for doi:10.1111/j.1476-5381.1995.tb15071.x (Vrije Universiteit, 1995)
# Molecular target: Sodium-dependent serotonin transporter (Cavia porcellus, UniProt O35899)
# Sequence (O35899 whole entry): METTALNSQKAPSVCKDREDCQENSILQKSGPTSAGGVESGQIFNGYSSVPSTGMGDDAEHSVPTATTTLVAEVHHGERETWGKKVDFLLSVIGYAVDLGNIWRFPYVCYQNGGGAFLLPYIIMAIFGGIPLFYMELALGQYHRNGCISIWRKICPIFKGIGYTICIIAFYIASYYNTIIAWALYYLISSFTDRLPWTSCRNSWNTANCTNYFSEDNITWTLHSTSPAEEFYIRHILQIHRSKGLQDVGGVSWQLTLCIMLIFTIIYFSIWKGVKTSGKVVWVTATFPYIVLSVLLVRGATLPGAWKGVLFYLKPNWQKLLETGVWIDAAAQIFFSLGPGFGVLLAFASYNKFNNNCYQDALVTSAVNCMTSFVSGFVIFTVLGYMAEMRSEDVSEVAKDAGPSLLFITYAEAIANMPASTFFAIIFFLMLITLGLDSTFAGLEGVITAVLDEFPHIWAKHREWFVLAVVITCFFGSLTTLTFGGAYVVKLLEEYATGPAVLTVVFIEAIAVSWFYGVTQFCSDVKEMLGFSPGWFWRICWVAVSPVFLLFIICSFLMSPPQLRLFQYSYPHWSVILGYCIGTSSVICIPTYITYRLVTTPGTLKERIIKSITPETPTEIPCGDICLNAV
compound,measurement,value
S=C(NC1CCCCC1)N1CCC(c2cnc[nH]2)CC1,Ki,> 10 µM
